Results: patent US20130005034A1, “ARTIFICIAL PEPTIDE AND USE THEREOF” (TOAGOSEI CO., LTD, priority 2008, published 2013)
Where no end group is shown, it is not given here.

Legend:
[1] = test system: human iPS cells (cell line: 201B2); experiment: iPS cell membrane permeability of FITC-labeled peptides (FITC fluorescence intensity, confocal laser scanning microscopy); format: cell-based; conditions: 1 hour; for Relative Intensity (FITC fluorescence): relative to Comparative Sample 2 at 0.5 μM = 1, average of five measurements; for introduction into artificial pluripotent stem cells: 0.5 μM or 1 μM
Experimental: Next, the abilities of the three resulting synthesized peptides to pass through the cell membranes of artificial pluripotent stem cells (iPS cells) were investigated. Fluorescein isothiocyanate (FITC) was added beforehand to the N-terminus of each of the synthesized peptides.
The human iPS cells (cell line: 201B2) used in this example were procured from Kyoto University. The mouse embryo fibroblasts (cell line: SNL76/7) used as feeder cells were procured from ECACC, which supply the cells on commission from Dr. Allan Bradley.
The iPS cells thus acquired were cultured, using a human embryonic stem cell culture medium (DMEM/F12, containing 20% knockout serum replacement (KSR), 2 mM L-glutamine, 0.1 mM non-essential amino acids, 0.1 mM 2-mercaptoethanol, 50 units/50 μg/ml penicillin/streptomycin, and 4 ng/ml bFGF), in a 37° C., 5% CO2 environment on a gelatin-coated dish seeded with the above SNL feeder cells that had been mitomycin C-treated.
The cultured iPS cells were then treated with a CTK solution (containing 1 mg/ml collagenase IV, […], […] and 20% KSR), and recovered. Next, a suspension of microaggregates was prepared by pipetting, dispensed into each well of a commercial gelatin-coated 4-well chamber (culture) slide that had been seeded with mitomycin C-treated SNL feeder cells, and cultured in a 37° C., 5% CO2 environment for about 6 days.
The culture solution in each well was then replaced with a cell culture obtained by adding a peptide stock solution (1 mM) of any one of the above Sample 6 and Comparative Samples 1 and 2 that had been pre-labeled with FITC to a specified concentration (i.e., to a final concentration within the medium of 0.5 μM or 1 μM), and the cell culture was cultured for 1 hour in a 37° C., 5% CO2 environment.
Next, after washing with PBS, the cells within the wells were fixed with cold methanol, and were encapsulated using a DAPI-containing antifade reagent (Invitrogen).
Localization of the FITC-labeled peptides was confirmed using a confocal laser scanning microscope. Specifically, the FITC fluorescence intensity in each test group (the respective encapsulated samples to be measured) was measured by confocal laser scanning microscopic analysis. The measurement conditions were as follows.
Argon laser excitation wavelength: 488 nm
Objective lens: Plan-Apochromat 20×/0.75
The relative fluorescence intensity of each test group was calculated relative to a value of 1 for the fluorescence intensity of the test group in which Comparative Sample 2 was added to a final concentration within the culture medium of 0.5 μM. Measurement was independently carried out five times, and the average value of the five measurements was treated as the fluorescence intensity. In addition, micrographs obtained using a confocal laser scanning microscope to observe iPS cell cultures to which Sample 6 or Comparative Sample 2 was added to a final concentration of 1 μM (the above encapsulated test groups) are shown respectively in FIG. 7 (Sample 6 addition group) and FIG. 8 (Comparative Sample 2 addition group).

[2] = test system: neural stem cells collected from a rat; conditions: peptide 1 μM in culture broth, 24 hours
Experimental: That is, these sample peptides were added to a culture broth of neural stem cells collected from a rat, and incubated. The amount of peptide added was adjusted so that the peptide concentration within the culture broth became 1 μM for each peptide.
In addition, the same sample was subjected to evaluation with a neuronal differentiation induction marker. That is, using tubulin as a marker for identifying neurons, the presence or absence of tubulin (i.e., of neurons) in the culture broth was determined by a fluorescent antibody method that uses a fluorescent dye-labeled anti-tubulin antibody for identifying this tubulin. In addition, using glial fibrillary acidic protein (GFAP), which is a cytoskeletal protein in glial cells, as a marker for identifying glial cells, the presence or absence of GFAP (i.e., of glial cells) in the culture broth was determined by a fluorescent antibody method that uses a fluorescent dye-labeled anti-GFAP antibody for identifying this GFAP.

Substance | Relative Intensity (FITC fluorescence) ([1]; 0.5 μM final concentration) | introduction into artificial pluripotent stem cells [1] | Relative Intensity (FITC fluorescence) ([1]; 1.0 μM final concentration) | differentiation to glial cells (GFAP marker) [2] | neuronal differentiation (differentiation from neural stem cells to neurons, tubulin marker) [2]
TLKERCLQVVRSLVKSRRHHCRSKAKRSRHH [Comparative Sample 2, VHL peptide linked to the N-terminal end of hPER1-NLS] | 1 | substantially not introduced | 4.8 |  | 
SLQYLCRFVIRQYTRKKRTLRKNDRKKR-NH2 [Sample 2, SLQYLCRFVIRQYTR-KKRTLRKNDRKKR] |  |  |  | not observed | 
TLKERCLQVVRSLVKKKRTLRKNDRKKR [Sample 6] | 13.5 |  | 23.2 |  | 
KKRTLRKNDRKKR [Comparative Sample 1] |  |  |  | not observed | not observed
RRRRRRRRRGTLKERCLQVVRSLVK [Comparative Sample 3, VHL peptide linked through a single glycine residue to the C-terminal end of polyarginine R9] | <1 | substantially not introduced | 2.8 |  | 
